From patent publication US20240400555A1 (Initial Therapeutics, Inc., priority 2023, published 2024)

What was measured:
[1] = system: HCT-116 Firefly-luciferase reporter cells; assay: Cellular c-MYC Reporter Assay; type: cell-based; settings: Homo sapiens; untitled table following Table 8a; HCT-116 Firefly-luciferase reporter cells, 24 h; read-out: pIC50 (converted)
Procedure: HCT-116 Firefly-luciferase reporter cells (BPS Bioscience) were seeded in 96-well tissue-culture treated sterile plates (Greiner Bio-One) at 5e4 cells/mL in 100 μL complete growth media (McCoy's 5A+10% FBS, +1% Pen-Strep, +1% G418). Cells were incubated at 37° C. with 5% CO2 for 4-6 h then treated with 3× compound solution in 50 μL complete growth media for a final volume of 150 μL per well with 0.2% DMSO. After 24 h incubation at 37° C. with 5% CO2, plates were allowed to equilibrate to RT for 20 min then developed by addition of 100 μL ONE-Glo Luciferase detection reagent (Promega), incubated at RT for 10 min. Luminescence was recorded using a SpectraMax i3x plate reader (Molecular Devices) and analyzed using Prism GraphPad 9 software.

[2] = system: MV-4-11 cells; assay: Cell Viability Assay in MV-4-11 Cells; type: cell-based; settings: Homo sapiens, MV4-11, 72 h, MV-4-11 cells, 72 h, Cell-Titer Glo; read-out: IC50
Procedure, shortened: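 Luminescent ATP read-out (CellTiter-Glo) after 72 h compound treatment of MV-4-11 leukaemia cells (7,000 per well, IMDM plus 10% FBS). Values expressed relative to DMSO control and derived by four-parameter non-linear regression.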

| Compound | IC50 [1] | IC50 [2] |
| --- | --- | --- |
| Cn1cc(-c2ccc3c(N(C(=O)c4ccc(-n5nnc6cccnc65)cc4F)[C@@H]4CCCNC4)nccc3c2)cn1 [Example 97, (R)-4-(3H-[1,2,3]triazolo[4,5-b]pyridin-3-yl)-2-fluoro-N-(6-(1-methyl-1H-pyrazol-4-yl)isoquinolin-1-yl)-N-(piperidin-3-yl)benzamide] | 380 nM |  |
| CCOC(=O)/C=C/c1ccc2c(N(C(=O)c3ccc(-n4nnc5cccnc54)cc3F)[C@@H]3CCCNC3)nccc2c1 [Example 98, ethyl (R,E)-3-(1-(4-(3H-[1,2,3]triazolo[4,5-b]pyridin-3-yl)-2-fluoro-N-(piperidin-3-yl)benzamido)isoquinolin-6-yl)acrylate] | 759 nM |  |
| CC(C)(C)[Si](C)(C)OC/C=C/c1cc2c(N(C(=O)c3ccc(-n4nnc5cccnc54)cc3F)[C@@H]3CCCNC3)nccc2s1 [Example 99, (R,E)-4-(3H-[1,2,3]triazolo[4,5-b]pyridin-3-yl)-N-(2-(3-((tert-butyldimethylsilyl)oxy)prop-1-en-1-yl)thieno[3,2-c]pyridin-4-yl)-2-fluoro-N-(piperidin-3-yl)benzamide] | 2000 nM |  |
| CCOC(=O)/C=C/c1cccc2ccnc(N(C(=O)c3ccc(-c4cn(C)nn4)cc3)[C@@H]3CCCNC3)c12 [Example 100, ethyl (R,E)-3-(1-(4-(1-methyl-1H-1,2,3-triazol-4-yl)-N-(piperidin-3-yl)benzamido)isoquinolin-8-yl)acrylate] | 1170 nM |  |
| Cn1cc(-c2ccc(C(=O)N(c3ncccc3-c3cc[nH]n3)[C@@H]3CCCNC3)cc2)nn1 [Example 101, (R)—N-(3-(1H-pyrazol-3-yl)pyridin-2-yl)-4-(1-methyl-1H-1,2,3-triazol-4-yl)-N-(piperidin-3-yl)benzamide] | > 10000 nM |  |
| C=Cc1cccc2ccnc(N(C(=O)c3ccc(-n4nnc5cccnc54)cc3F)[C@@H]3CCCNC3)c12 [Example 102, (R)-4-(3H-[1,2,3]triazolo[4,5-b]pyridin-3-yl)-2-fluoro-N-(piperidin-3-yl)-N-(8-vinylisoquinolin-1-yl)benzamide] | 46.8 nM |  |
| O=C(c1ccc(-n2nnc3cccnc32)cc1F)N(c1nccc2ccc(C#CCO)cc12)[C@@H]1CCCNC1 [Example 103, (R)-4-(3H-[1,2,3]triazolo[4,5-b]pyridin-3-yl)-2-fluoro-N-(7-(3-hydroxyprop-1-yn-1-yl)isoquinolin-1-yl)-N-(piperidin-3-yl)benzamide] | 776 nM |  |
| O=C(c1ccc(-n2nnc3cccnc32)cc1F)N(c1ncccc1/C=C/CCO)[C@@H]1CCCNC1 [Example 104, 2-fluoro-N-[3-[(E)-4-hydroxybut-1-enyl]-2-pyridyl]-N-[(3R)-3-piperidyl]-4-(triazolo[4,5-b]pyridin-3-yl)benzamide] | 8910 nM |  |
| O=C(c1ccc(-n2nnc3cccnc32)cc1F)N(c1ncccc1C#CCCO)[C@@H]1CCCNC1 [Example 105, 2-fluoro-N-[3-(4-hydroxybut-1-ynyl)-2-pyridyl]-N-[(3R)-3-piperidyl]-4-(triazolo[4,5-b]pyridin-3-yl)benzamide] | 6310 nM |  |
| O=C(c1ccc(-n2nnc3cccnc32)cc1F)N(c1nccc2cc(-c3cn[nH]c3)ccc12)[C@@H]1CCCNC1 [Example 106, (R)—N-(6-(1H-pyrazol-4-yl)isoquinolin-1-yl)-4-(3H-[1,2,3]triazolo[4,5-b]pyridin-3-yl)-2-fluoro-N-(piperidin-3-yl)benzamide] | 537 nM |  |
| C#Cc1cccnc1N(C(=O)c1ccc(-n2nnc3cccnc32)cc1F)[C@@H]1CCCNC1 [Example 107, (R)-4-(3H-[1,2,3]triazolo[4,5-b]pyridin-3-yl)-N-(3-ethynylpyridin-2-yl)-2-fluoro-N-(piperidin-3-yl)benzamide] | 977 nM |  |
| C=C(C)c1cccnc1N(C(=O)c1ccc(-n2nnc3cccnc32)cc1F)[C@@H]1CCCNC1 [Example 108, (R)-4-(3H-[1,2,3]triazolo[4,5-b]pyridin-3-yl)-2-fluoro-N-(piperidin-3-yl)-N-(3-(prop-1-en-2-yl)pyridin-2-yl)benzamide] | 129 nM |  |
| Cn1cc(-c2ccc(C(=O)N(c3cc(/C=C/c4ccccc4)ccn3)[C@@H]3CCCNC3)cc2)nn1 [Example 109, (R,E)-4-(1-methyl-1H-1,2,3-triazol-4-yl)-N-(piperidin-3-yl)-N-(4-styrylpyridin-2-yl)benzamide] | > 10000 nM |  |
| Cn1cc(-c2ccc(C(=O)N(c3cc(-c4cc[nH]n4)ccn3)[C@@H]3CCCNC3)cc2)nn1 [Example 110, 4-(1-methyltriazol-4-yl)-N-[(3R)-3-piperidyl]-N-[4-(1H-pyrazol-3-yl)-2-pyridyl] benzamide] | > 10000 nM |  |
| Cc1cccc2ccnc(N(C(=O)c3ccc(-c4cn(C)nn4)cc3)[C@@H]3CCCNC3)c12 [Example 111, (R)-4-(1-methyl-1H-1,2,3-triazol-4-yl)-N-(8-methylisoquinolin-1-yl)-N-(piperidin-3-yl) benzamide] | 513 nM |  |
| Cn1cnc(-c2cccnc2N(C(=O)c2ccc(-n3nnc4cccnc43)cc2F)[C@@H]2CCCNC2)c1 [Example 112, (R)-4-(3H-[1,2,3]triazolo[4,5-b]pyridin-3-yl)-2-fluoro-N-(3-(1-methyl-1H-imidazol-4-yl)pyridin-2-yl)-N-(piperidin-3-yl)benzamide] | 380 nM |  |
| O=C(c1ccc(-n2nnc3cccnc32)cc1F)N(c1ncccc1C1=CCNC1)[C@@H]1CCCNC1 [Example 113, (R)-4-(3H-[1,2,3]triazolo[4,5-b]pyridin-3-yl)-N-(3-(2,5-dihydro-1H-pyrrol-3-yl)pyridin-2-yl)-2-fluoro-N-(piperidin-3-yl)benzamide] | 4270 nM |  |
| O=C(c1ccc(-n2nnc3cccnc32)cc1F)N(c1ncccc1-c1cnoc1)[C@@H]1CCCNC1 [Example 114, (R)-4-(3H-[1,2,3]triazolo[4,5-b]pyridin-3-yl)-2-fluoro-N-(3-(isoxazol-4-yl)pyridin-2-yl)-N-(piperidin-3-yl)benzamide] | 1120 nM |  |
| Cn1cc(-c2cccnc2N(C(=O)c2ccc(-n3nnc4cccnc43)cc2F)[C@@H]2CCCNC2)cn1 [Example 115, (R)-4-(3H-[1,2,3]triazolo[4,5-b]pyridin-3-yl)-2-fluoro-N-(3-(1-methyl-1H-pyrazol-4-yl)pyridin-2-yl)-N-(piperidin-3-yl)benzamide] | 550 nM |  |
| O=C(c1ccc(-n2nnc3cccnc32)cc1F)N(c1ncccc1-c1cnn(CCO)c1)[C@@H]1CCCNC1 [Example 116, (R)-4-(3H-[1,2,3]triazolo[4,5-b]pyridin-3-yl)-2-fluoro-N-(3-(1-(2-hydroxyethyl)-1H-pyrazol-4-yl)pyridin-2-yl)-N-(piperidin-3-yl)benzamide] | 2570 nM |  |
| COC(=O)c1ccc2c(N(C(=O)c3ccc(-n4nnc5cccnc54)cc3F)[C@@H]3CCCNC3)nccc2c1 [Example 117, methyl (R)-1-(4-(3H-[1,2,3]triazolo[4,5-b]pyridin-3-yl)-2-fluoro-N-(piperidin-3-yl)benzamido)isoquinoline-6-carboxylate] | 490 nM |  |
| O=C(O)c1ccc2c(N(C(=O)c3ccc(-n4nnc5cccnc54)cc3F)[C@@H]3CCCNC3)nccc2c1 [Example 118, (R)-1-(4-(3H-[1,2,3]triazolo[4,5-b]pyridin-3-yl)-2-fluoro-N-(piperidin-3-yl)benzamido)isoquinoline-6-carboxylic acid] | > 20000 nM |  |
| Cc1cccc2ccnc(N(C(=O)c3ccc(Nc4nccc(N5CC[C@H](N(C)C)C5)n4)cc3F)[C@@H]3CCCNC3)c12 [Example 967, 4-({4-[(3S)-3-(dimethylamino)pyrrolidin-1-yl]pyrimidin-2-yl}amino)-2-fluoro-N-(8-methylisoquinolin-1-yl)-N-[(3R)-piperidin-3-yl]benzamide] |  | 48 nM |
| Cc1cccc2ccnc(N(C(=O)c3ccc(Nc4ncnc(N5CCCC5)n4)cc3F)[C@@H]3CCCNC3)c12 [Example 968, 2-fluoro-N-(8-methylisoquinolin-1-yl)-N-[(3R)-piperidin-3-yl]-4-{[4-(pyrrolidin-1-yl)-1,3,5-triazin-2-yl]amino}benzamide] |  | 40 nM |
| Cc1cccc2ccnc(N(C(=O)c3ccc(Nc4ncnc(N5CCCCC5)n4)cc3F)[C@@H]3CCCNC3)c12 [Example 969, 2-fluoro-N-(8-methylisoquinolin-1-yl)-4-{[4-(piperidin-1-yl)-1,3,5-triazin-2-yl]amino}-N-[(3R)-piperidin-3-yl]benzamide] |  | 45 nM |
| Cc1cccc2ccnc(N(C(=O)c3ccc(Nc4ncnc(N5CCOCC5)n4)cc3F)[C@@H]3CCCNC3)c12 [Example 970, 2-fluoro-N-(8-methylisoquinolin-1-yl)-4-{[4-(morpholin-4-yl)-1,3,5-triazin-2-yl]amino}-N-[(3R)-piperidin-3-yl]benzamide] |  | 34 nM |
| Cc1cccc2ccnc(N(C(=O)c3ccc(Nc4ncnc(-c5ccccc5)n4)cc3F)[C@@H]3CCCNC3)c12 [Example 971, (R)-2-fluoro-N-(8-methylisoquinolin-1-yl)-4-(4-phenyl-1,3,5-triazin-2-ylamino)-N-(piperidin-3-yl)benzamide] |  | 107 nM |
| Cc1cccc2ccnc(N(C(=O)c3ccc(Nc4nccc(CN5CCC(F)(F)CC5)n4)cc3)[C@@H]3CCCNC3)c12 [Example 972, (R)-4-((4-((4,4-difluoropiperidin-1-yl)methyl)pyrimidin-2-yl)amino)-N-(8-methylisoquinolin-1-yl)-N-(piperidin-3-yl)benzamide] |  | 213 nM |
